This passage reports remaining activity results from publication PMC8286840, “Identifying SARS-CoV-2 antiviral compounds by screening for small molecule inhibitors of Nsp3 papain-like protease” (Biochemical Journal, 2021).

For test [1], the target named is T1, SARS-CoV-2 PLpro (nsp3 1564–1878) (Severe acute respiratory syndrome coronavirus 2, UniProt P0DTD1). The test can be described thus: biochemical. Also noted: FRET-quenched peptide (Pro3) cleavage by PLpro, 10 min pre-incubation, slope over 20 min, normalised to no-compound control. As to conditions: low concentration screen, read-out: % of control remaining.
In test [2] the target is T1, SARS-CoV-2 PLpro (nsp3 1564–1878). Nature of the test: biochemical. Set-up: FRET-quenched peptide (Pro3) cleavage by PLpro, 10 min pre-incubation, slope over 20 min, normalised to no-compound control. The settings on record: high concentration screen, read-out: % of control remaining.

Where a name gives a salt, the structure may show the parent alone. Read-outs that look alike come from different tables or passages of the source. Where no end group is shown, it is not given here.

In the case of `CCn1c2ccccc2c2cc(Nc3ccnc(NCCCN4CCOCC4)n3)ccc21` [EHop-016], in test [1] (Well no.=6234), the remaining activity at 1.25 µM was determined as 98.3%. Further, the remaining activity at 3.75 µM in test [2] (Well no.=6234) amounted to 97.9%.

Turning to `C#CCN[C@@H]1CCc2ccccc21` [Rasagiline mesylate], the remaining activity at 1.25 µM in test [1] (Well no.=4766) stood at 98.4%. Also, the remaining activity at 3.75 µM in test [2] (Well no.=4766) came to 97.6%.

`Cc1cccc(Cc2c[nH]cn2)c1C` [Detomidine HCl]: the remaining activity at 1.25 µM in test [1] (Well no.=5062) stood at 103%. The remaining activity at 3.75 µM in test [2] (Well no.=5062) was found to be 105%.

Take `O=[N+]([O-])c1ccc(CNc2nc(NCc3cccc(C(F)(F)F)c3)nc3nc[nH]c23)cc1` [IP3K Inhibitor]: in test [1] (Well no.=2477), the remaining activity at 1.25 µM is 103%. Besides, in test [2] (Well no.=2477), the remaining activity at 3.75 µM amounted to 105%.

Take `Nc1nc(Nc2ccc(S(N)(=O)=O)cc2)nn1C(=O)c1c(F)cccc1F` [Aurora Kinase/Cdk Inhibitor]: in test [1] (Well no.=2356), the remaining activity at 1.25 µM stood at 98.5%. Besides, the remaining activity at 3.75 µM in test [2] (Well no.=2356) is 100%.

With `CC(=O)CC/C=C(\C)CC/C=C(\C)CC/C=C(\C)CCC=C(C)C` [Geranylgeranylacetone], the remaining activity at 1.25 µM in test [1] (Well no.=6123) stood at 96.8%. In addition, the remaining activity at 3.75 µM in test [2] (Well no.=6123) worked out at 95.3%.

As to `C[C@@H](O[C@H]1OCCN(Cc2n[nH]c(=O)[nH]2)[C@H]1c1ccc(F)cc1)c1cc(C(F)(F)F)cc(C(F)(F)F)c1` [Aprepitant], the remaining activity at 1.25 µM in test [1] (Well no.=2244) stood at 98.3%; in test [1] (Well no.=6703), 102%. For the same compound, the remaining activity at 3.75 µM in test [2] (Well no.=2244) came out at 99.9%; in test [2] (Well no.=6703), 97.7%.

Consider RPPGFSPFR [Bradykinin], for which the remaining activity at 1.25 µM in test [1] (Well no.=8439) worked out at 98.7%. For the same compound, the remaining activity at 3.75 µM in test [2] (Well no.=8439) turned out to be 95.2%.

For the compound `C[C@](N)(Cc1ccc(O)c(O)c1)C(=O)O` [Methyldopa], the remaining activity at 1.25 µM in test [1] (Well no.=1955) was 92.2%. The remaining activity at 3.75 µM in test [2] (Well no.=1955) came to 92.5%.

Consider `CC(CCc1ccccc1)NCC(O)c1ccc(O)c(C(N)=O)c1` (stereo not drawn) [Labetalol (hydrochloride)], for which the remaining activity at 1.25 µM in test [1] (Well no.=8287) came to 99.3%. The remaining activity at 3.75 µM in test [2] (Well no.=8287) amounted to 94.7%.

Turning to `O=C1CSc2ccccc2N1Cc1cccc(C(F)(F)F)c1` [4-[3-(trifluoromethyl)benzyl]-2H-1,4-benzothiazin-3(4H)-one], the remaining activity at 1.25 µM in test [1] (Well no.=5941) was 104%. Besides, the remaining activity at 3.75 µM in test [2] (Well no.=5941) amounted to 103%.

On to `N=C(N)NN` [Aminoguanidine hydrochloride], for which the remaining activity at 1.25 µM in test [1] (Well no.=104) is 93%. Moreover, the remaining activity at 3.75 µM in test [2] (Well no.=104) is 94.6%.

Consider `CC(C)n1cnc2c(NCc3ccccc3O)nc(NCCCO)nc21` [Cdk Inhibitor, p35], for which the remaining activity at 1.25 µM in test [1] (Well no.=2387) was determined as 94.5%. Further, in test [2] (Well no.=2387), the remaining activity at 3.75 µM worked out at 97%.

As to `c1ccc([C@@H]2CCC[C@@H]2NC2=NCCCCCCCCCCC2)cc1` [MDL 12,330A hydrochloride], in test [1] (Well no.=993), the remaining activity at 1.25 µM worked out at 103%. Further, the remaining activity at 3.75 µM in test [2] (Well no.=993) was 101%.

Regarding `CCCCCCCCCCCCCCCC(=O)O` [Hexadecanoic acid], the remaining activity at 1.25 µM in test [1] (Well no.=4302) stood at 101%. In test [2] (Well no.=4302), the remaining activity at 3.75 µM worked out at 97.2%.

As to `CCNC(=O)[C@H]1O[C@@H](n2cnc3c(N)nc(NCCc4ccc(CCC(=O)O)cc4)nc32)[C@H](O)[C@@H]1O` [CGS 21680 (Hydrochloride)], the remaining activity at 1.25 µM in test [1] (Well no.=7001) stood at 99.7%; in test [1] (Well no.=8417) it was 95.9%. The results for the remaining activity at 3.75 µM in test [2] (Well no.=7001) and in test [2] (Well no.=8417) were 95.1% and 94.7%, respectively.

Regarding `CC(C)(C)NCC(O)c1ccccc1Cl` (stereo not drawn) [Tulobuterol hydrochloride], in test [1] (Well no.=1291), the remaining activity at 1.25 µM stood at 105%. Besides, the remaining activity at 3.75 µM in test [2] (Well no.=1291) turned out to be 106%.

Consider `CCCCC/C=C\C=C\C(O)CCCCCCCC(=O)O` (racemic), for which, in test [1] (Well no.=4378), the remaining activity at 1.25 µM worked out at 103%. Further, the remaining activity at 3.75 µM in test [2] (Well no.=4378) came out at 103%.

On to `Cn1cc(C2=C(c3cn(C4CCN(Cc5ccccn5)CC4)c4ccccc34)C(=O)NC2=O)c2ccccc21` [Enzastaurin (LY317615)], for which the remaining activity at 1.25 µM in test [1] (Well no.=5003) came out at 93%. Also, in test [2] (Well no.=5003), the remaining activity at 3.75 µM worked out at 87.9%.

On to `Cn1cc(C2=C(c3cn(CCCSC(=N)N)c4ccccc34)C(=O)NC2=O)c2ccccc21` [Ro 31-8220 mesylate - 3-[3-[2,5-Dihydro-4-(1-methyl-1H-indol-3-yl)-2,5-dioxo-1H-pyrrol-3-yl]-1H-indol-1-yl]propyl carbamimidothioic acid ester mesylate], for which the remaining activity at 1.25 µM in test [1] (Well no.=2482) came to 104%. Further, in test [2] (Well no.=2482), the remaining activity at 3.75 µM was 102%.

Take `O=C1C[C@@H](c2ccc(O)c(O)c2)Oc2c1ccc(O[C@@H]1O[C@H](CO)[C@@H](O)[C@H](O)[C@H]1O)c2O` [Flavanomarein]: in test [1] (Well no.=3805), the remaining activity at 1.25 µM turned out to be 96.3%. The remaining activity at 3.75 µM in test [2] (Well no.=3805) stood at 100%.

Regarding `NC[C@@H]1O[C@H](O[C@H]2[C@@H](O)[C@H](O[C@@H]3[C@@H](O)[C@H](N)C[C@H](N)[C@H]3O[C@H]3O[C@H](CO)[C@@H](O)[C@H](O)[C@H]3N)O[C@@H]2CO)[C@H](N)[C@@H](O)[C@@H]1O` [Paromomycin sulfate], the remaining activity at 1.25 µM in test [1] (Well no.=1211) is 99.9%. Moreover, the remaining activity at 3.75 µM in test [2] (Well no.=1211) is 100%.

Consider `Nc1ccc(C(=O)O)c(O)c1` [4-Aminosalicylic acid], for which the remaining activity at 1.25 µM in test [1] (Well no.=2119) was found to be 99.3%. In addition, in test [2] (Well no.=2119), the remaining activity at 3.75 µM stood at 101%.

Regarding `COc1ccccc1N1CCN(CCN2C(=O)CC3(CCCC3)CC2=O)CC1` [BMY 7378], the remaining activity at 1.25 µM in test [1] (Well no.=5346) was determined as 91.4%. Besides, in test [2] (Well no.=5346), the remaining activity at 3.75 µM turned out to be 88.7%.

Take `N[C@@H](CSCCCO)C(=O)O` [Fudosteine]: in test [1] (Well no.=5102), the remaining activity at 1.25 µM was determined as 100%. In addition, the remaining activity at 3.75 µM in test [2] (Well no.=5102) is 102%.

For the compound `NC(N)=N[C@@H](CCC(=O)O)C(=O)O` [alpha-Guanidinoglutaric acid], in test [1] (Well no.=669), the remaining activity at 1.25 µM stood at 93.5%. The remaining activity at 3.75 µM in test [2] (Well no.=669) stood at 96.1%.

Regarding `CCCC(C)(COC(N)=O)COC(=O)NC(C)C` (stereo not drawn) [Carisoprodol], in test [1] (Well no.=380), the remaining activity at 1.25 µM is 95.8%. Besides, in test [2] (Well no.=380), the remaining activity at 3.75 µM worked out at 95.3%.

On to `CN(C)C(=O)N[C@H]1CC[C@H](CCN2CCN(c3cccc(Cl)c3Cl)CC2)CC1` [Cariprazine (hydrochloride)], for which the remaining activity at 1.25 µM in test [1] (Well no.=6661) was determined as 108%. For the same compound, the remaining activity at 3.75 µM in test [2] (Well no.=6661) worked out at 103%.

As to `O=C1NC(=O)/C(=C/c2ccc(-c3ccc(F)cc3O)o2)S1` [AS-252424], the remaining activity at 1.25 µM in test [1] (Well no.=2947) came out at 93.9%. In addition, the remaining activity at 3.75 µM in test [2] (Well no.=2947) amounted to 97.2%.

Take `CN(C)CCC(c1ccc(Cl)cc1)c1ccccn1` (stereo not drawn) [Chlorpheniramine (maleate)]: the remaining activity at 1.25 µM in test [1] (Well no.=7525) is 103%. In addition, the remaining activity at 3.75 µM in test [2] (Well no.=7525) was determined as 101%.

As to `C[Se]C[C@H](N)C(=O)O` [Se-(methyl)selenocysteine hydrochloride], the remaining activity at 1.25 µM in test [1] (Well no.=1124) was found to be 97.3%. In test [2] (Well no.=1124), the remaining activity at 3.75 µM came to 95.6%.
